A short description of data set [1]: Summary across the 3 food-effect studies. The data set is classed as in vivo, human.
The conditions of data set [2]: cited from earlier work.
The conditions of data set [3]: high solubility and high permeability; no reference given; cited from earlier work.
For data set [4] the following is noted: early phase 1 and 2 studies, no reference given; cited from earlier work.
For data set [5] the following is noted: for AUC(0-inf) / AUC(0-t) / Cmax / Tmax / half-life: plasma, single oral dose, healthy subjects; for AUC(0-inf): AUCinf; for AUC(0-inf) / AUC(0-t) / Cmax / Tmax / half-life / Fed:Fasted GMR (90% CI) AUCinf / Fed:Fasted GMR (90% CI) Cmax: ertugliflozin 15-mg/sitagliptin 100-mg FDC tablet; for AUC(0-t): AUClast; for Tmax: median (range); for half-life: t1/2, arithmetic mean ± SD; for Fed:Fasted GMR (90% CI) AUCinf / Fed:Fasted GMR (90% CI) Cmax: adjusted geometric mean ratio fed:fasted.

For data set [6] the following is noted: for AUC(0-inf): AUCinf; for AUC(0-t): AUClast; for Fed:Fasted GMR (90% CI) AUCinf / Fed:Fasted GMR (90% CI) Cmax: adjusted geometric mean ratio fed:fasted.
The nature of data set [7]: Food-effect pharmacokinetic study of ertugliflozin 15-mg tablet. The note with it: for AUC(0-t): AUClast.
The conditions of data set [8]: metformin 850 mg alone; cited from earlier work.
For data set [9] the following is noted: sitagliptin monotherapy, cited from earlier work.
The mark [10] stands for this setting: both, human, po, geometric mean (geometric %CV), fasted.
The mark [11] stands for this setting: both, human, po, geometric mean (geometric %CV), fed (high-fat breakfast).
The mark [12] stands for this setting: both, human, po, fed (high-fat breakfast).
The mark [13] stands for this setting: both, human, plasma, po, arithmetic mean ± SD, ertugliflozin 7.5-mg/metformin 1000-mg FDC tablet, single oral dose, healthy subjects, fed (high-fat breakfast).
The mark [14] stands for this setting: both, human, plasma, po, geometric mean (geometric %CV), ertugliflozin 7.5-mg/metformin 1000-mg FDC tablet, single oral dose, healthy subjects, fasted.
[15] abbreviates: both, human, plasma, po, geometric mean (geometric %CV), ertugliflozin 7.5-mg/metformin 1000-mg FDC tablet, single oral dose, healthy subjects, fed (high-fat breakfast).
Setting [16] is: ertugliflozin 7.5-mg/metformin 1000-mg FDC tablet.
Where [17] appears, read: ertugliflozin 15-mg tablet, adjusted geometric mean ratio fed:fasted.

Read-outs that look alike come from different tables or passages of the source.

The Tmax is the time at which the peak concentration occurs. As a reminder, the half-life is the time in which the quantity being followed falls by half. Low values mean rapid decline, high ones slow decline. As for `CCOc1ccc(Cc2cc([C@]34OC[C@](CO)(O3)[C@@H](O)[C@H](O)[C@H]4O)ccc2Cl)cc1` [Ertugliflozin], in [1] (in all 3 studies), the “Delay of median Tmax, fed compared with fasted” value amounted to 1 h. Further, the “Reduction of Cmax, fed compared with fasted” value in data set [1] (range across the 3 studies) is 29%–41%. Further, the “Dose proportionality of exposure” value in [2] (dose range of 0.5 to 300 mg) is “dose proportional”. Also, the “median Tmax” value in data set [2] (phase 1 studies, oral administration, fasted conditions) was 0.5 to 1.5 h. For the same compound, in data set [2] (phase 1 studies), the “terminal elimination half-life (t1/2)” value is 11 to 17 h. Further, the “Biopharmaceutical Classification System (BCS) class” value in [3] is “class I”. Also, the Maximum tolerated dose entry in [4] was “has not been identified”. In addition, the “Decrease of Cmax in the fed state compared with the fasted state” value was 30% in data set [5] (administered as ertugliflozin/sitagliptin FDC, based on adjusted GMR); 41% in [6] (administered as ertugliflozin/metformin FDC, based on adjusted GMR); 29% in data set [7] (administered as monotherapy (15-mg tablet), based on adjusted GMR). The AUC(0-inf) is 1170 ng·h/mL in data set [5] (setting [10]); 1110 ng·h/mL in data set [5] (setting [11]); 621 ± 168 ng·h/mL in [6] (setting [13]); 655 ng·h/mL in data set [6] (setting [14]); 602 ng·h/mL in [6] (setting [15]); 1330 ng·h/mL in [7] (both, human, plasma, po, 15 mg, AUCinf, geometric mean (geometric %CV), ertugliflozin 15-mg tablet, single oral dose, healthy subjects, fasted). Besides, the AUC(0-t) in [5] (setting [10]) worked out at 1150 ng·h/mL; in data set [5] (setting [11]) it was 1090 ng·h/mL; in [6] (setting [13]) it was 606 ± 166 ng·h/mL; in [6] (setting [14]), 640 ng·h/mL; in data set [6] (setting [15]), 587 ng·h/mL; in [7] (both, human, plasma, po, 15 mg, geometric mean (geometric %CV), ertugliflozin 15-mg tablet, single oral dose, healthy subjects, fasted) it was 1310 ng·h/mL. Also, in [7] (both, human, plasma, po, 15 mg, geometric mean (geometric %CV), ertugliflozin 15-mg tablet, single oral dose, healthy subjects, fed (high-fat breakfast)), the AUC(0-t) was 1220 ng·h/mL. Moreover, the Cmax in data set [5] (both, human, po, Cmax, geometric mean (geometric %CV), fasted) came to 223 ng/mL; in data set [5] (both, human, po, Cmax, geometric mean (geometric %CV), fed (high-fat breakfast)), 157 ng/mL; in data set [6] (setting [13]) it was 82.3 ± 40.7 ng/mL; in data set [6] (setting [14]), 126 ng/mL; in [6] (setting [15]), 75.3 ng/mL; in data set [7] (both, human, plasma, po, 15 mg, Cmax, geometric mean (geometric %CV), ertugliflozin 15-mg tablet, single oral dose, healthy subjects, fasted), 271 ng/mL. In addition, the time of peak concentration (Tmax) in [5] (setting [12]) worked out at 2 h. Moreover, the half-life is 11.6 ± 2.3 h in [5] (setting [12]); 11.2 ± 4.5 h in data set [6] (both, human, plasma, po, t1/2, arithmetic mean ± SD, ertugliflozin 7.5-mg/metformin 1000-mg FDC tablet, single oral dose, healthy subjects, fed (high-fat breakfast)); 11.5 ± 2.6 h in data set [7] (both, human, plasma, po, 15 mg). The results for the “Fed:Fasted GMR (90% CI) AUCinf” value in [5], in data set [6] (setting [16]) and in data set [7] (setting [17]) were 94.6 (91.6–97.8) %, 93.8 (90.1–97.7) % and 91.7 (88.0–95.4) %, respectively. Also, the “Fed:Fasted GMR (90% CI) Cmax” value is given as 70.5 (63.3–78.4) % in data set [5], 59.4 (51.1–69.1) % in [6] (setting [16]) and 70.7 (61.7–80.9) % in data set [7] (setting [17]).
Consider `CN(C)C(=N)N=C(N)N` [Metformin], for which, in data set [8], the “Increase in Tmax, fed versus fasted” value was “approximately 35 minute”; the “Lower AUC, fed versus fasted” value is given as 25%; the “Lower mean Cmax, fed versus fasted” value is recorded as 40%. In addition, the “Delay of Tmax, fed versus fasted” value in data set [6] (administered as ertugliflozin/metformin FDC tablet) is 1.7 h. Moreover, the Tmax in data set [6] (both, human, plasma, po) stood at 2.3 h. For the same compound, the Cmax in [6] (setting [13]) is 1520 ± 417 ng/mL. The same compound registered a Cmax in [6] (setting [14]) of 2040 ng/mL. Moreover, the Cmax in [6] (setting [15]) came out at 1460 ng/mL. In data set [6] (setting [16]), the “Fed:Fasted GMR (90% CI) AUCinf” value is given as 92.8 (85.1–101.3) % and the “Fed:Fasted GMR (90% CI) Cmax” value is recorded as 70.7 (63.6–78.5) %. Also, the “Tmax, median (range)” value in data set [6] (ertugliflozin 7.5-mg/metformin 1000-mg FDC tablet, single oral dose, healthy subjects, plasma, fed (high-fat breakfast)) is on record as 4.0 (0.5–8.0) h.
In the case of `N[C@@H](CC(=O)N1CCn2c(nnc2C(F)(F)F)C1)Cc1cc(F)c(F)cc1F` [Sitagliptin], the “fed:fasted GMR for Cmax” value in data set [9] (90% CI 86%–103%) is listed as 94%. The “fed:fasted GMR for AUCinf” value in data set [9] (90% CI 97%–111%) was 103%. Moreover, the AUC(0-inf) in [5] (setting [11]) is 7.1 µM·h. The same compound came in with an AUC(0-t) in [5] (setting [10]) of 7.3 µM·h. In data set [5] (setting [12]), the time to peak (Tmax) is 1.8 h and the half-life was 12.1 ± 1.6 h. In data set [5], the “Fed:Fasted GMR (90% CI) AUCinf” value is on record as 96.6 (94.0–99.4) % and the “Fed:Fasted GMR (90% CI) Cmax” value was 96.1 (82.4–112.1) %. Also, the Cmax in [5] (read-out: Cmax, geometric mean (geometric %CV), fed (high-fat breakfast), 1.00 ng/mL = 2.46 nM) stood at 721 nM.

Source of the values: publication PMC6618047 (Clinical Pharmacology in Drug Development, 2018).
